This note sets out measurements from PubChem BioAssay (NCI).

Each structure is given as a SMILES string.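 Method: 48-hour compound exposure of cells in 96-well plates, five concentrations, linear interpolation of endpoints. Abbreviation: GI50, concentration required for 50% inhibition of growth. TGI: total growth inhibition.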

Some test systems named below: CCRF-CEM leukemia; EKVX NSCLC; MALME-3M melanoma; MDA-MB-435; OVCAR-3 ovarian; OVCAR-4 ovarian; OVCAR-5 ovarian; SK-MEL-2 melanoma; SK-MEL-5 melanoma; SNB-75 CNS.
Experiment in all cases: NCI-60 cell line screen, 48 h

Take `c1ccc(-c2nc3n(c2-c2ccc4c(c2)OCO4)CCC3)nc1`: the GI50 in the assay on CCRF-CEM leukemia is 7.63 µM; with EKVX NSCLC, 5.2 µM; with MALME-3M melanoma, 8.19 µM; in the assay with MDA-MB-435 it was 8.8 µM; with OVCAR-3 ovarian it was 7.69 µM; with OVCAR-4 ovarian, 2.41 µM. In addition, the GI50 was 5.03 µM in the assay on OVCAR-5 ovarian, 11.7 µM with SK-MEL-2 melanoma, 2.05 µM with SK-MEL-5 melanoma and 6.42 µM in the assay with SNB-75 CNS. In addition, the TGI with CCRF-CEM leukemia is greater than 25 µM; in the assay on EKVX NSCLC, greater than 25 µM; in the assay with MALME-3M melanoma, greater than 23.4 µM; in the assay with MDA-MB-435 it was greater than 25 µM; in the assay with OVCAR-3 ovarian it was greater than 22.6 µM; with OVCAR-4 ovarian, 15.8 µM. Further, the TGI with OVCAR-5 ovarian was greater than 25 µM; in the assay with SK-MEL-2 melanoma, greater than 25 µM; in the assay on SK-MEL-5 melanoma it was 8.86 µM; in the assay on SNB-75 CNS, greater than 25 µM.
In the case of `N=c1ccc2nc3ccc(N)cc3sc-2c1`, the GI50 with CCRF-CEM leukemia is 3.55 µM; with EKVX NSCLC, 6.63 µM; in the assay with MALME-3M melanoma, 6.22 µM; in the assay with MDA-MB-435 it was 2.37 µM; in the assay with OVCAR-3 ovarian, 3.21 µM; in the assay with OVCAR-4 ovarian it was 3.78 µM. Also, the GI50 in the assay on OVCAR-5 ovarian is 7.62 µM; in the assay with SK-MEL-2 melanoma, 6.08 µM; in the assay on SK-MEL-5 melanoma, 1.7 µM; in the assay with SNB-75 CNS, 3.77 µM. Also, the TGI in the assay on CCRF-CEM leukemia came out at 35.3 µM; in the assay on EKVX NSCLC, 81.1 µM; in the assay on MALME-3M melanoma it was 32.5 µM; in the assay with MDA-MB-435, 5.21 µM; in the assay with OVCAR-3 ovarian, 13.7 µM; with OVCAR-4 ovarian it was 13.5 µM. The TGI is 24.3 µM in the assay on OVCAR-5 ovarian, 22.5 µM with SK-MEL-2 melanoma, 3.53 µM with SK-MEL-5 melanoma and 16.4 µM in the assay with SNB-75 CNS.
As to `C=C1C(=O)O[C@H]2[C@H]1CC/C(COC(=O)N[C@H]1C[C@H](O[C@H]3C[C@](O)(C(=O)CO)Cc4c(O)c5c(c(O)c43)C(=O)c3c(OC)cccc3C5=O)O[C@@H](C)[C@H]1O)=C\CC[C@@]1(C)O[C@@H]21`, the GI50 in the assay on CCRF-CEM leukemia is 0.672 µM; in the assay with EKVX NSCLC, 23.3 µM; with MALME-3M melanoma, 0.879 µM; in the assay with MDA-MB-435, 6.31 µM; with OVCAR-3 ovarian, 2.2 µM; with OVCAR-4 ovarian, 3.47 µM. Besides, the GI50 in the assay with OVCAR-5 ovarian is 6.91 µM; with SK-MEL-2 melanoma it was 7.97 µM; in the assay on SK-MEL-5 melanoma, 8.1 µM; with SNB-75 CNS it was 6.97 µM. The TGI with CCRF-CEM leukemia was 2.28 µM; in the assay on EKVX NSCLC, greater than 50 µM; in the assay on MALME-3M melanoma, 1.9 µM; in the assay with MDA-MB-435 it was 22.2 µM; in the assay with OVCAR-3 ovarian it was 7.8 µM; in the assay with OVCAR-4 ovarian, 12.3 µM. Also, the TGI in the assay with OVCAR-5 ovarian was determined as 18 µM; in the assay with SK-MEL-2 melanoma, 17 µM; in the assay on SK-MEL-5 melanoma, 18.1 µM; with SNB-75 CNS, 24.1 µM.
